According to patent US20250144094A1 (Erasca, Inc., priority 2021, published 2025):

Biological target: Recombinant human ULK1 (1-649) (Homo sapiens (Human), UniProt O75385)
Experiment: ULK1 ADP Glo kinase activity assay (MBP substrate)
Conditions: 25° C., 40 minutes, read-out: ULK1 biochemical IC50
Protocol: Recombinant human ULK1 (1-649) protein expressed in Sf9 insect cells was obtained from SignalChem (Vancouver, BC), catalog #U01-11G. Active kinase was purified via N-terminal GST tag to >85% purity.
ADP GLO Kinase Assay Reagents were obtained from Promega Corp (Madison, WI), catalog #V9104.
MBP (myelin basic protein) substrate, bovine, purified, was obtained from Sigma (St. Louis, MO), catalog #M1891.
ULK1 inhibitor potency was determined using the luminescent ADP Glo Kinase Assay (Promega), a universal ADP detection system that measures kinase activity by quantifying the amount of ADP produced during a kinase reaction. ULK1 kinase reactions are performed in a standard 96-well microplate (20 uL reaction volume) at 25° C. for 40 minutes in the presence or absence of the test compound (12-point dilution series starting at 10 uM). Addition of MBP substrate and ATP initiates the kinase reaction.
The standard ADP Glo assay is performed in two steps. In step one, following the kinase reaction, an equal volume of ADP-Glo™ Reagent (20 uL) is added to terminate the kinase reaction and deplete the remaining ATP. In the second step, the Kinase Detection Reagent (10 uL) is added to simultaneously convert ADP to ATP and allow the newly synthesized ATP to be measured using a luciferase/luciferin reaction. Step two of the ADP Glo assay is performed in a white 384-well plate (20 uL final volume). Thirty minutes after the addition of the Detection reagent, light generated from the luciferase reaction is measured (1 second exposure) using a microplate compatible luminometer (CLARIOstar, BMG Labtech).
Inhibition of ULK1 kinase activity is determined for each test compound by comparison to DMSO only control wells. Inhibitor IC50 was calculated by plotting the change in luminescence after 30 minutes (response) versus inhibitor concentration (in log molar) then applying the four-parameter variable slope curve fit (GraphPad Prism). Inhibition of ULK1 in biochemical assay is found in Table 3.

Chain of Recombinant human ULK1 (1-649) (O75385 1-649): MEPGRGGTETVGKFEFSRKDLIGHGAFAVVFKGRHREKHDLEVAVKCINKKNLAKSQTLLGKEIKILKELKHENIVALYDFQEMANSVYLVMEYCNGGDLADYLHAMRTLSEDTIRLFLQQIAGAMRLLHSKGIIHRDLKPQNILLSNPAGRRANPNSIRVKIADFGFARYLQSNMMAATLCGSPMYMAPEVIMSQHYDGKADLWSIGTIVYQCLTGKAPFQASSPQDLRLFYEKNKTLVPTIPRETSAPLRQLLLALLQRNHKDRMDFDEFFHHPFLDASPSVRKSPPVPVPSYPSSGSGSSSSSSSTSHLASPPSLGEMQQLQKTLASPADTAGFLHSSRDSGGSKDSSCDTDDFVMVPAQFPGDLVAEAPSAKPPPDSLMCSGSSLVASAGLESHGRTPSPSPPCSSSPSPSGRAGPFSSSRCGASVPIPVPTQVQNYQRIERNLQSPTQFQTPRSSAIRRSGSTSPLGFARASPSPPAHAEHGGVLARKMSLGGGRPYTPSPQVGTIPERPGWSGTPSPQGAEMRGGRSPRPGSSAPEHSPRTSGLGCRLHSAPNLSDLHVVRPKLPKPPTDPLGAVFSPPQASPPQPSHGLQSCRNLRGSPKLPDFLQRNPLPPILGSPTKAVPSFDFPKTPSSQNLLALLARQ

CN1C(=O)c2cc(-c3nc(Nc4cc5c(cc4Cl)CNCC5)ncc3C(F)(F)F)sc2C1(C)C [Example 42, 2-(2-((7-chloro-1,2,3,4-tetrahydroisoquinolin-6-yl)amino)-5-(trifluoromethyl)pyrimidin-4-yl)-5,6,6-trimethyl-5,6-dihydro-4H-thieno[2,3-c]pyrrol-4-one]
IC50: ≤ 10 nM

O=C1NCCc2sc(-c3nc(Nc4cc5c(cc4F)CNCC5)ncc3C(F)(F)F)cc21 [Example 43, 2-(2-((7-fluoro-1,2,3,4-tetrahydroisoquinolin-6-yl)amino)-5-(trifluoromethyl)pyrimidin-4-yl)-6,7-dihydrothieno[3,2-c]pyridin-4(5H)-one]
IC50: ≤ 10 nM

CS(=O)(=O)N1CCc2sc(-c3nc(Nc4cc5c(cc4Cl)CNCC5)ncc3C(F)(F)F)cc2C1=O [Example 44, 2-(2-((7-chloro-1,2,3,4-tetrahydroisoquinolin-6-yl)amino)-5-(trifluoromethyl)pyrimidin-4-yl)-5-(methylsulfonyl)-6,7-dihydrothieno[3,2-c]pyridin-4(5H)-one]
IC50: ≤ 10 nM

Cc1sc(-c2nc(Nc3cc4c(cc3Cl)CNCC4)ncc2C(F)(F)F)cc1C(N)=O [Example 45, 5-(2-((7-chloro-1,2,3,4-tetrahydroisoquinolin-6-yl)amino)-5-(trifluoromethyl)pyrimidin-4-yl)-2-methylthiophene-3-carboxamide]
IC50: ≤ 10 nM

O=C1NCCCc2sc(-c3nc(Nc4cc5c(cc4Cl)CCNC5)ncc3C(F)(F)F)cc21 [Example 46, 2-(2-((6-chloro-1,2,3,4-tetrahydroisoquinolin-7-yl)amino)-5-(trifluoromethyl)pyrimidin-4-yl)-5,6,7,8-tetrahydro-4H-thieno[3,2-c]azepin-4-one]
IC50: ≤ 10 nM

CN1CCCc2sc(-c3nc(Nc4cc5c(cc4Cl)CNCC5)ncc3C(F)(F)F)cc2C1=O [Example 47, 2-(2-((7-chloro-1,2,3,4-tetrahydroisoquinolin-6-yl)amino)-5-(trifluoromethyl)pyrimidin-4-yl)-5-methyl-5,6,7,8-tetrahydro-4H-thieno[3,2-c]azepin-4-one]
IC50: ≤ 10 nM

CN1CCC(n2cc(Nc3ncc(C(F)(F)F)c(-c4cc5c(s4)CCNC5=O)n3)c(C3CC3)n2)CC1 [Example 48, 2-(2-((3-cyclopropyl-1-(1-methylpiperidin-4-yl)-1H-pyrazol-4-yl)amino)-5-(trifluoromethyl)pyrimidin-4-yl)-6,7-dihydrothieno[3,2-c]pyridin-4(5H)-one]
IC50: ≤ 10 nM

CN1CCc2cc(Cl)c(Nc3ncc(C(F)(F)F)c(-c4cc5c(s4)CCCNC5=O)n3)cc2C1 [Example 49, 2-(2-((6-chloro-2-methyl-1,2,3,4-tetrahydroisoquinolin-7-yl)amino)-5-(trifluoromethyl)pyrimidin-4-yl)-5,6,7,8-tetrahydro-4H-thieno[3,2-c]azepin-4-one]
IC50: ≤ 10 nM

Cc1nc(=O)c2cc(-c3nc(Nc4cc5c(cc4Cl)CNCC5)ncc3C(F)(F)F)sc2[nH]1 [Example 50, 6-(2-((7-chloro-1,2,3,4-tetrahydroisoquinolin-6-yl)amino)-5-(trifluoromethyl)pyrimidin-4-yl)-2-methylthieno[2,3-d]pyrimidin-4(1H)-one]
IC50: > 500 nM

CCS(=O)(=O)c1csc(-c2nc(Nc3cc4c(cc3Cl)CNCC4)ncc2C(F)(F)F)c1 [Example 51, 7-chloro-N-(4-(4-(ethylsulfonyl)thiophen-2-yl)-5-(trifluoromethyl)pyrimidin-2-yl)-1,2,3,4-tetrahydroisoquinolin-6-amine]
IC50: ≤ 10 nM

COCCS(=O)(=O)c1csc(-c2nc(Nc3cc4c(cc3Cl)CNCC4)ncc2C(F)(F)F)c1 [Example 52, 7-chloro-N-(4-(4-((2-methoxyethyl)sulfonyl)thiophen-2-yl)-5-(trifluoromethyl)pyrimidin-2-yl)-1,2,3,4-tetrahydroisoquinolin-6-amine]
IC50: ≤ 10 nM

O=C1NCCNc2sc(-c3nc(Nc4cc5c(cc4Cl)CNCC5)ncc3C(F)(F)F)cc21 [Example 53, 7-(2-((7-chloro-1,2,3,4-tetrahydroisoquinolin-6-yl)amino)-5-(trifluoromethyl)pyrimidin-4-yl)-1,2,3,4-tetrahydro-5H-thieno[2,3-e][1,4]diazepin-5-one]
IC50: ≤ 10 nM

O=S(=O)(CCN1CCOCC1)c1csc(-c2nc(Nc3cc4c(cc3Cl)CNCC4)ncc2C(F)(F)F)c1 [Example 54, 7-chloro-N-(4-(4-((2-morpholinoethyl)sulfonyl)thiophen-2-yl)-5-(trifluoromethyl)pyrimidin-2-yl)-1,2,3,4-tetrahydroisoquinolin-6-amine]
IC50: 100 to 500 nM

COCCOc1sc(-c2nc(Nc3cc4c(cc3Cl)CNCC4)ncc2C(F)(F)F)cc1C(N)=O [Example 55, 5-(2-((7-chloro-1,2,3,4-tetrahydroisoquinolin-6-yl)amino)-5-(trifluoromethyl)pyrimidin-4-yl)-2-(2-methoxyethoxy)thiophene-3-carboxamide]
IC50: ≤ 10 nM

COCCOc1sc(-c2nc(Nc3cc4c(cc3Cl)CNCC4)ncc2C(F)(F)F)cc1S(C)(=O)=O [Example 56, 7-chloro-N-(4-(5-(2-methoxyethoxy)-4-(methylsulfonyl)thiophen-2-yl)-5-(trifluoromethyl)pyrimidin-2-yl)-1,2,3,4-tetrahydroisoquinolin-6-amine]
IC50: ≤ 10 nM

COCCOc1sc(-c2nc(Nc3cc4c(cc3Cl)CN(C)CC4)ncc2C(F)(F)F)cc1S(C)(=O)=O [Example 57, 7-chloro-N-(4-(5-(2-methoxyethoxy)-4-(methylsulfonyl)thiophen-2-yl)-5-(trifluoromethyl)pyrimidin-2-yl)-2-methyl-1,2,3,4-tetrahydroisoquinolin-6-amine]
IC50: ≤ 10 nM

CS(=O)(=O)c1cc(-c2nc(Nc3cc4c(cc3Cl)CNCC4)ncc2C(F)(F)F)sc1C(=O)N1CCOCC1 [Example 58, (5-(2-((7-chloro-1,2,3,4-tetrahydroisoquinolin-6-yl)amino)-5-(trifluoromethyl)pyrimidin-4-yl)-3-(methylsulfonyl)thiophen-2-yl)(morpholino)methanone]
IC50: 100 to 500 nM

CS(=O)(=O)c1cc(-c2nc(Nc3cc4c(cc3Cl)CNCC4)ncc2C(F)(F)F)sc1C(N)=O [Example 59, 5-(2-((7-chloro-1,2,3,4-tetrahydroisoquinolin-6-yl)amino)-5-(trifluoromethyl)pyrimidin-4-yl)-3-(methylsulfonyl)thiophene-2-carboxamide]
IC50: ≤ 10 nM

O=S1(=O)CCCOc2sc(-c3nc(Nc4cc5c(cc4Cl)CNCC5)ncc3C(F)(F)F)cc21 [Example 60, 2-(2-((7-chloro-1,2,3,4-tetrahydroisoquinolin-6-yl)amino)-5-(trifluoromethyl)pyrimidin-4-yl)-6,7-dihydro-5H-thieno[2,3-b][1,4]oxathiepine 4,4-dioxide]
IC50: ≤ 10 nM

CN1CCc2cc(Nc3ncc(C(F)(F)F)c(-c4cc(S(C)(=O)=O)c(C(=O)N5CCOCC5)s4)n3)c(Cl)cc2C1 [Example 61, (5-(2-((7-chloro-2-methyl-1,2,3,4-tetrahydroisoquinolin-6-yl)amino)-5-(trifluoromethyl)pyrimidin-4-yl)-3-(methylsulfonyl)thiophen-2-yl)(morpholino)methanone]
IC50: 100 to 500 nM

CS(=O)(=O)c1cc(-c2nc(Nc3cc4c(cc3Cl)CNCC4)ncc2C(F)(F)F)sc1CN1CCOCC1 [Example 62, 7-chloro-N-(4-(4-(methylsulfonyl)-5-(morpholinomethyl)thiophen-2-yl)-5-(trifluoromethyl)pyrimidin-2-yl)-1,2,3,4-tetrahydroisoquinolin-6-amine]
IC50: 10 to 50 nM
